From ChEMBL document CHEMBL3286249 (Eur J Med Chem, 2014)

The molecules below were run against Carbonic anhydrase 9 (Homo sapiens, UniProt Q16790).
Molecule NS(=O)(=O)c1cc(-c2nnc(-c3ccccc3)[nH]2)c(Cl)cc1Cl has a Ki of 9.7 nM. With NS(=O)(=O)c1cc(-c2nnc(Nc3ccccc3)o2)c(Cl)cc1Cl the Ki was 13.8 nM. NS(=O)(=O)c1cc(-c2nnc(Nc3ccc(Cl)cc3)o2)c(Cl)cc1Cl gave a Ki of 15.1 nM. In the case of NS(=O)(=O)c1cc(-c2nnc(-c3ccccc3)o2)c(Cl)cc1Cl, the Ki is reported as 13.2 nM. NS(=O)(=O)c1cc(-c2nnc(-c3ccc(Cl)cc3)o2)c(Cl)cc1Cl showed a Ki of 10.9 nM. Molecule NS(=O)(=O)c1cc(-c2nnc(-c3ccccc3)s2)c(Cl)cc1Cl has a Ki of 13.6 nM. NS(=O)(=O)c1cc(NC(=O)Nc2ccccc2)c(Cl)cc1Cl showed a Ki of 7 nM. Work on NS(=O)(=O)c1cc(NC(=O)Nc2ccc(Cl)cc2)c(Cl)cc1Cl yielded a Ki of 7.1 nM. NS(=O)(=O)c1ccc(NC(=O)Nc2cc(S(N)(=O)=O)c(Cl)cc2Cl)cc1 showed a Ki of 15.8 nM. For NS(=O)(=O)c1cc(NC(=O)NOCc2ccccc2)c(Cl)cc1Cl, the Ki was 18.9 nM. For NS(=O)(=O)c1cc(NC(=O)NNC(=O)c2ccccc2)c(Cl)cc1Cl, the Ki was 12.5 nM. With NS(=O)(=O)c1cc(NC(=O)NCCCN2CCOCC2)c(Cl)cc1Cl the Ki was 38 nM. In the case of NS(=O)(=O)c1cc(NC(=O)N2CCN(Cc3ccc4c(c3)OCO4)CC2)c(Cl)cc1Cl, the Ki is reported as 76 nM. With NS(=O)(=O)c1cc(C(=O)NNC(=S)Nc2ccccc2)c(Cl)cc1Cl the Ki was 31 nM. NS(=O)(=O)c1cc(C(=O)NNC(=S)Nc2ccc(Cl)cc2)c(Cl)cc1Cl showed a Ki of 27 nM. Work on Cc1ccc(S(=O)(=O)NC(=O)NNC(=O)c2cc(S(N)(=O)=O)c(Cl)cc2Cl)cc1 yielded a Ki of 15.3 nM. Molecule NS(=O)(=O)c1cc(C(=O)NNC(=O)c2ccco2)c(Cl)cc1Cl has a Ki of 3.9 nM. NS(=O)(=O)c1cc(C(=O)NNC(=O)c2ccccc2)c(Cl)cc1Cl gave a Ki of 10.2 nM. For Cc1ccc(C(=O)NNC(=O)c2cc(S(N)(=O)=O)c(Cl)cc2Cl)cc1, the Ki was 5.5 nM.

Each molecule was assayed against Carbonic anhydrase 1 (Homo sapiens, UniProt P00915).
Chain of Carbonic anhydrase 1 (P00915 whole entry): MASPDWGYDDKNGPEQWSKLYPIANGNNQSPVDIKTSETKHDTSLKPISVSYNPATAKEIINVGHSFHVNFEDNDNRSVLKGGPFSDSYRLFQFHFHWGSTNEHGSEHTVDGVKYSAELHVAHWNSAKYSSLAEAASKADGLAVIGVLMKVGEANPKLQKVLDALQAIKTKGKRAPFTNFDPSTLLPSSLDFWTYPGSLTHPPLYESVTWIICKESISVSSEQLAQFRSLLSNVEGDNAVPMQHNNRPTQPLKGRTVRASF
In the case of Cc1nnc(-c2cc(S(N)(=O)=O)c(Cl)cc2Cl)o1, the Ki is reported as 718 nM.

Each molecule was assayed against Carbonic anhydrase 2 (Homo sapiens, UniProt P00918).
Cc1nnc(-c2cc(S(N)(=O)=O)c(Cl)cc2Cl)o1 gave a Ki of 8.7 nM.

These molecules were tested against Carbonic anhydrase 12 (Homo sapiens, UniProt O43570).
Chain of Carbonic anhydrase 12 (O43570 whole entry): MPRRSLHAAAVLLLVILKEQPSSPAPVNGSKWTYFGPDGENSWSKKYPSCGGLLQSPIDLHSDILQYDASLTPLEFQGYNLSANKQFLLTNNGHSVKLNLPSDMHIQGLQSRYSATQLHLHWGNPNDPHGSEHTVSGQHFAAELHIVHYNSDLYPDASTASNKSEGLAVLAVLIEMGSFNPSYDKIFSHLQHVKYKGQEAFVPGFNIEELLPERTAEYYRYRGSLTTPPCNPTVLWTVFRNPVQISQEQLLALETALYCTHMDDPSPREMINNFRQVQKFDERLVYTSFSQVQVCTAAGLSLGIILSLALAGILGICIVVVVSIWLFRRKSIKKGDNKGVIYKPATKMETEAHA
Cc1nnc(-c2cc(S(N)(=O)=O)c(Cl)cc2Cl)o1 was tested, and the Ki was 6.3 nM.
